In ChEMBL document CHEMBL6182848, “Phenyl-benzyl-ureas with pyridazinone motif: Potent soluble epoxide hydrolase inhibitors with enhanced pharmacokinetics and efficacy in a paclitaxel-induced neuropathic pain model” (Eur J Med Chem, 2025):
Active and inactive are the calls of the source.

How the values were obtained:
Mus musculus [1] = test: Analgesic activity in PTX-induced neuropathic pain male C57BL/6 mouse model assessed as improvement in mechanical paw withdrawal threshold at 60 mg/kg, po administered for 14 days by Von Frey test; type: functional, organism-based; conditions: time 14.0 day
Mus musculus [2] = test: Analgesic activity in PTX-induced neuropathic pain male C57BL/6 mouse model assessed as improvement in mechanical paw withdrawal threshold at 60 mg/kg, po measured up to 4 hrs by Von Frey test; type: functional, organism-based
[3] = Toxicity in PTX-induced neuropathic pain male C57BL/6 mouse model assessed as change in body weight at 60 mg/kg/day, po treated for 14 days; type: organism-based; conditions: in vivo, 336 h, time 14 day
[4] = molecular target: T1, Bifunctional epoxide hydrolase 2 (Homo sapiens, UniProt P34913); test: Inhibition of human recombinant sEH expressed in baculovirus infected Sf9 cells using PHOME as substrate preincubated for 10 mins followed by substrate addition measured after 60 mins by fluorescence based assay; type: cell-based
T1 sequence (P34913 whole entry): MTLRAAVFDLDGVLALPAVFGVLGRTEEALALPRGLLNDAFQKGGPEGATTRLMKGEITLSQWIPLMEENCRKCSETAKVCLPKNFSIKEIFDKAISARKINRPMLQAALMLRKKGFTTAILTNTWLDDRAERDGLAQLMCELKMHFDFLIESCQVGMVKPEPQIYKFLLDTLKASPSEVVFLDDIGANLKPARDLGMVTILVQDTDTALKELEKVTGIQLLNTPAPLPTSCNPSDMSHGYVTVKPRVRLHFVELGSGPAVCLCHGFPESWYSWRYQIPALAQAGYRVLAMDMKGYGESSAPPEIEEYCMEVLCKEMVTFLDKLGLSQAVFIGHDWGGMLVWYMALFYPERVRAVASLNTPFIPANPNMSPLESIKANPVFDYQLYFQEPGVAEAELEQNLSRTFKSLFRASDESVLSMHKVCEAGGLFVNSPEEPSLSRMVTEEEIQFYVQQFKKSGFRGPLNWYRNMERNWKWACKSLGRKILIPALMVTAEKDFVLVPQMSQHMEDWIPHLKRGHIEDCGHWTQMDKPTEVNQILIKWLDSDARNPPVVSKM

[5] = Metabolic stability in human liver microsomes assessed as half life measured up to 60 mins in presence of NADPH by LC-MS/MS analysis; type: ADME, Microsome
[6] = Metabolic stability in mouse liver microsomes assessed as half life measured up to 60 mins in presence of NADPH by LC-MS/MS analysis; type: ADME, Microsome
[7] = Metabolic stability in human liver microsomes assessed as intrinsic clearance measured up to 60 mins in presence of NADPH by LC-MS/MS analysis; type: ADME, Microsome; conditions: 1 h
[8] = Permeability coefficient of compound in PBS at pH 7.4 at 10 uM incubated for 16 hrs PAMPA-BBB assay
[9] = Half life in male CD-1 mouse at 2 mg/kg, iv measured up to 24 hrs by LC-MS/MS analysis; type: ADME, organism-based; conditions: in vivo
[10] = C0 in male CD-1 mouse at 2 mg/kg, iv measured up to 24 hrs by LC-MS/MS analysis; type: ADME, organism-based; conditions: in vivo
[11] = MRT in male CD-1 mouse at 2 mg/kg, iv measured up to 24 hrs by LC-MS/MS analysis; type: ADME, organism-based; conditions: in vivo
[12] = Clearance in male CD-1 mouse at 2 mg/kg, iv measured up to 24 hrs by LC-MS/MS analysis; type: ADME, organism-based; conditions: in vivo
[13] = Volume of distribution at steady state in male CD-1 mouse at 2 mg/kg, iv measured up to 24 hrs by LC-MS/MS analysis; type: ADME, organism-based; conditions: in vivo, read-out: Vdss
[14] = AUC (0 to infinity) in male CD-1 mouse at 2 mg/kg, iv measured up to 24 hrs by LC-MS/MS analysis; type: ADME, organism-based; conditions: in vivo
[15] = Half life in male CD-1 mouse at 10 mg/kg, po measured up to 24 hrs by LC-MS/MS analysis; type: ADME, organism-based; conditions: in vivo
[16] = Cmax in male CD-1 mouse at 10 mg/kg, po measured up to 24 hrs by LC-MS/MS analysis; type: ADME, organism-based; conditions: in vivo
[17] = AUC (0 to infinity) in male CD-1 mouse at 10 mg/kg, po measured up to 24 hrs by LC-MS/MS analysis; type: ADME, organism-based; conditions: in vivo
[18] = MRT in male CD-1 mouse at 10 mg/kg, po measured up to 24 hrs by LC-MS/MS analysis; type: ADME, organism-based; conditions: in vivo
[19] = Oral bioavailability in male CD-1 mouse at 10 mg/kg measured up to 24 hrs by LC-MS/MS analysis; type: ADME, organism-based; conditions: in vivo
Mus musculus [20] = test: Analgesic activity in PTX-induced neuropathic pain male C57BL/6 mouse model assessed as improvement in mechanical paw withdrawal threshold at 10 mg/kg, po measured up to 4 hrs by Von Frey test; type: functional, organism-based
Mus musculus [21] = test: Analgesic activity in PTX-induced neuropathic pain male C57BL/6 mouse model assessed as improvement in mechanical paw withdrawal threshold at 30 mg/kg, po measured up to 4 hrs by Von Frey test; type: functional, organism-based
Mus musculus [22] = test: Analgesic activity in PTX-induced neuropathic pain male C57BL/6 mouse model assessed as improvement in mechanical paw withdrawal threshold at 10 to 30 mg/kg, po measured for 2 to 4 hrs by Von Frey test; type: functional, organism-based; conditions: dose 10-30 mg/kg, time 2-4 hrs
PBMC [23] = test: Anti-inflammatory activity in LPS-induced human PBMC assessed as reduction in TNF-alpha level pre-incubated with compound for 30 mins followed by LPS stimulation and measured after 6 hrs by ELISA; type: functional, cell-based; conditions: dose 1-1000 nM, time 390.0 min
PBMC [24] = test: Anti-inflammatory activity in LPS-induced human PBMC assessed as reduction in IL-6 level pre-incubated with compound for 30 mins followed by LPS stimulation and measured after 6 hrs by ELISA; type: functional, cell-based; conditions: dose 1-1000 nM
[25] = Cytotoxicity against human PBMC at 10 uM incubated for 24 hrs by MTT assay; type: toxicity, cell-based
Mus musculus [26] = test: Analgesic activity in PTX-induced neuropathic pain male C57BL/6 mouse model assessed as improvement in mechanical paw withdrawal threshold at 30 mg/kg, po administered for 14 days by Von Frey test; type: functional, organism-based; conditions: time 14.0 day

## NCC1(CC(=O)O)CCCCC1 [GABAPENTIN]
Mus musculus [1]
  Activity: Active; Compound Effect Noticeably Decreased With Prolonged Administration
Mus musculus [2]
  Activity: Active; Exhibited Consistent And Prolonged Effect
[3]
  Activity: Non-toxic

## O=C(NCc1ccccc1F)Nc1ccc(-c2ccc(=O)[nH]n2)cc1
[4]
  IC50: ≥ 0.1 µM

## O=C(NCc1cccc(C(F)(F)F)c1)Nc1ccc(-c2ccc(=O)[nH]n2)cc1
[4]
  IC50: ≥ 0.1 µM

## O=C(NCc1ccccc1)Nc1ccc(-c2ccc(=O)[nH]n2)cc1
[4]
  IC50: > 0.1 µM

## O=C(Cc1ccccc1C(F)(F)F)Nc1ccc(-c2ccc(=O)[nH]n2)cc1
[4]
  IC50: > 0.1 µM

## Cn1nc(-c2ccc(NC(=O)NCc3ccccc3C(F)(F)F)cc2)ccc1=O
[5]
  half-life: > 3.08 h
[6]
  half-life: > 3.08 h
[7]
  CLH: < 7.5 µL/min/mg

## O=C(NCc1ccc(C(F)(F)F)cc1)Nc1ccc(-c2ccc(=O)[nH]n2)cc1
[4]
  IC50: ≥ 0.1 µM

## COc1ccc(CNC(=O)Nc2ccc(-c3ccc(=O)[nH]n3)cc2)c(C(F)(F)F)c1
[5]
  half-life: > 3.08 h
[6]
  half-life: 0.393 h
[7]
  CLH: < 7.5 µL/min/mg

## O=C(NCc1ccccc1C(F)(F)F)Nc1ccc(-c2ccc(=O)[nH]n2)cc1
[5]
  half-life: > 3.08 h
[6]
  half-life: > 3.08 h
[7]
  CLH: < 7.5 µL/min/mg

## CN(Cc1cnc2nc(N)nc(N)c2n1)c1ccc(C(=O)N[C@@H](CCC(=O)O)C(=O)O)cc1 [METHOTREXATE]
[8]; 16 h, 10 µM
  Kp: 0.001 ×10⁻⁶ cm/s

## O=C(NCc1ccccc1OC(F)(F)F)Nc1ccc(-c2ccc(=O)[nH]n2)cc1
[5]
  half-life: > 3.08 h
[6]
  half-life: > 3.08 h
[7]
  CLH: < 7.5 µL/min/mg
[9]
  half-life: 3.21 h
[10]
  C0 at 24 h: 4640 ng/mL
[11]
  MRT: 3.5 h
[12]
  clearance: 4.8 mL/min/kg
[13]
  Vd: 1.02 L/kg
[14]
  AUC(0-inf): 7630 ng·h/mL
[15]
  half-life: 2.43 h
[16]
  Cmax: 4700 ng/mL
[17]
  AUC(0-inf): 29700 ng·h/mL
[18]
  MRT: 5.23 h
[19]
  bioavailability: 78%
[8]
  Papp at 16 h, 10 µM: 3.83 ×10⁻⁶ cm/s
Mus musculus [20]
  Activity: inactive
Mus musculus [21]
  Activity: Active
Mus musculus [22]
  Activity: Active
PBMC [23]
  Activity: Dose-dependent-effect
PBMC [24]
  Activity: Dose-dependent-effect
[25]
  Activity: Non-toxic
Mus musculus [26]
  Activity: Active; Effect Was Lower Than Gabapentin With Chronic Use, But Its Efficacy Remained Stable
